Assay results as given in patent US10434147B2, “Treatment type 2 diabetes mellitus patients” (Sanofi-Aventis Deutschland GmbH, priority 2015, dated 2019).

Experiments:
[1] = test system: Patients with Type 2 Diabetes Insufficiently Controlled with Insulin Glargine with or without Metformin; assay: Body weight, 26-week study; type: in vivo, human; settings: once daily or three times daily; in words
Description: FIG. 6—Graphical study design. ^1 Insulin glargine should be injected subcutaneously once daily at dinner or breakfast time (according to patient's/investigators' preference). […] Meal used for insulin glulisine dosing should remain the same throughout the 26-week treatment period. ^4 Injection of insulin glulisine prior to breakfast, lunch and dinner.
Co-primary endpoints at 26 weeks were (1) non-inferiority (95% CI upper bound <0.4%) in HbA1c reduction with LIXI vs GLU-1 and (2) for LIXI vs GLU-3, either non-inferiority in HbA1c reduction (2a) OR superiority (one-sided α≤0.025) in body weight change (2b). FPG, PPG, IG dose, composite outcomes, AEs, and hypoglycemia were assessed.

[2] = test system: obese type 2 diabetes mellitus patients poorly controlled with a basal insulin alone or with one to three oral anti-diabetic drugs; assay: 12-week insulin glargine titration (run-in); type: in vivo, human; settings: 12 weeks titration, optionally with metformin

Substance	Effect of the comparative treatment on body weight [1]	fasting glucose plasma concentration after titration of insulin glargine ([2]; initial reduction from 9.16 mmol/L) [mmol/L]	HbA1c after titration of insulin glargine ([2]; initial reduction from 8.51%) [%]
insulin glulisine: prandial insulin, comparative treatment once daily or three times daily	significant weight gain	–	–
Gly(A21)-Arg(B31)-Arg(B32) human insulin [insulin glargine]	–	6.91	7.87
